According to patent US6960594B2, “Thiophene and furan 2,5-dicarboxamides useful in the treatment of cancer” (Shire BioChem Inc., priority 1998, dated 2005):
Where “and” joins values, the source holds several entries; their conditions need not be identical. Equal entries are not always repeated.

Experiments:
[1] = tested on: Chick chorioallantoic membrane (CAM) capillary formation driven by VPF/VEGF165; experiment: Chick chorioallantoic membrane (CAM) mesh assay; type: in vivo, chicken; conditions: significant if >25%
Method: Fertilized white leghorn chicken eggs (SPAFAS Inc., Norwich, Conn.) were received at day 0 and incubated for 3 days at 37 C with constant humidity. On day 3, eggs were rinsed with 70% ethanol and opened into 100 mm^2 tissue culture coated Petri dishes under aseptic conditions. The embryos were then returned to a humidified 38 C incubator for 7-9 additional days.
Vitrogen (Collagen Biomaterials, Palo Alto, Calif.) at a final concentration of 0.73 mg/mL and Matrigel (Becton Dickinson, Bedford, Mass.) at a final concentration of 10 mg/mL was directly pipetted onto Nylon meshes with 250 μm^2 openings which were cut into 4 mm×4 mm squares and autoclaved. Polymerization of meshes were under aseptic conditions, on bacteriological Petri dishes. The polymerization conditions for each substrate were identical; after mixing with or without 250 μg of VPF/VEGF165 (Peprotech, Rocky Hill, N.J.) and/or compounds of interest, 40 μL were pipetted onto each mesh in a bacteriological Petri dish. The Petri dish was placed in a humidified 37 C incubator with 5% CO2 for 30 minutes to allow polymerization followed by an incubation at 4° C. for 2 hours.
In a tissue culture enclosure, meshes were placed onto the periphery of the CAM of a day 12-14 embryo, excluding areas containing major vessels. The embryos were then returned to the humidified 38° C. incubator with 3% CO2 for 24 to 48 additional hours.
Embryos were removed from the incubator and meshes were viewed under a dissecting microscope for gross evaluation. Injection of 400 μL FITC dextran, MW 2,000,000 (Sigma, St. Louis, Mo.) through glass microcapillary tubes by infusion into the umbilical vein was performed at a rate of 200 μl per minute. The FITC dextran was allowed to circulate for 5 minutes and 3.7% formaldehyde in PBS was applied directly on each mesh. The embryos were then incubated at 40° C. for 5 minutes and the meshes were dissected off the CAM and fixed in 3.7% formaldehyde for 10 minutes to overnight.
After fixation, meshes were mounted on slides with 90% glycerol in PBS and visualized on an inverted fluorescence microscope. A Nikon Diaphot with a Sony DXC-151A camera attached to the side port was used for capture of images and analysis was with the NIH Image 1.61 software program. For each mesh, 5 random staggered images (approximately 600 μm each) were captured. The areas of high intensity were highlighted and measured. Results are expressed as ability to suppress capillary formation after subtraction from negative control. Values were calculated as a inhibition, considering 100% the capillary density achieved by VPF in the presence of vitrogen alone minus the bakground levels in the absence of VPF. Negative values indicated angiogenic stimulation above the VPF positive control.

[2] = tested on: Human non small-cell lung cancer cell line H460; experiment: Inhibition of metastasis in angiomouse/metamouse human lung cancer model of H460; type: in vivo, athymic BALB/c nude mice
Method: Male and female athymic BALB/c nude mice between 4 and 5 weeks of age were used. The animals were bred and maintained in an HEPA-filtered environment with cages, food and bedding sterilized by autoclaving. The breeding pairs were obtained from the Charles River Laboratories (Wilmington, Mass.). The animal diets were obtained from Harlan Teklab (Madison, Wis.). Ampicillin (Sigma, St Louis, Mo.) 5.0% (v/v) was added to the autoclaved drinking water.
Compound VII was tested and AGM-1470 (chloroacetyl-(3R,4S,5S,6R)-5-methoxy-4-[(2R,3R)-2-methyl-3-(3-methyl-2-butenyl)oxiranyl]-1-oxaspiro[2.5]oct-6-yl ester carbamic acid) was used as a positive control. [drawing 51] The compounds were dissolved using PEG400 with heating and sonicatin. The solutions were then diluted with saline to obtain the desired concentrations (30%/70%) and stored at −20° C.
Human non small-cell lung cancer cell line H460 with expression of green fluorescent protein was obtained from the National Cancer Institute. The cells were transfected with vectors carrying the green fluorescent protein (GFP) gene. The cell line was propagated by subcutaneous implantation in nude mice.
Test animals were transplanted by surgical orthotopic implantation (SOI) using fragments harvested from subcutaneaous tumor stock animals. The animals were anesthetized with isoflurane and the surgical area was sterilized using iodine solution and alcohol. A left thoracotomy was made along the 4th intercostal space using a pair of scissors. Two pieces of H460 tumor tissue of one cubic millimiter each were sutured to the left lung using an 8-0 nylon surgical suture. The thorax was closed using a sterile 6-0 silk suture. A sterile 3-cc syringe with a 25-gauge needle was used to remove the air and inflate the lung. All surgical and animal manipulations and procedures were conducted under HEPA-filtered laminar flow hoods.
Extra numbers of mice were transplanted to compensate for postsurgical losses. The orthotopically transplanted animals used were selected to establish groups of similar mean body weight. Groups for each of the cohort conditions wre randomly chosen. The cohort was grouped as follows. A total of 10 mice were used for each dosage regimen. Administration of test compounds and vehicle by subcutaneous injection was begun three days after the orthotopic implantation.
Two animals for each treatment group were sacrificed at day-14 after orthotopic implantation of H460. The remaining animals for each group were sacrificed at day-28 after implantation. The sacrificed animals were evaluated for primary and secondary tumors. Gross examination for distant metastasis was conducted at necropsy. Tissue samples of the primary tumor and those from relevant organs such as the lung, the liver and the lymph nodes wre processed through standards procedures of hematoxylin and eosin staining for subsequent microscopic examination.
The mediastinal lymph nodes, the liver and the lung in each animal were collected. The sampled tissues were sectioned and stained, then microscopically examined. The fisher-exact test was performed to compare distant metastasis to these organs in the treated and the controls. […]

[3] = Group C, 5 mg/kg SC 2 times/day

For NCCCNC(=O)c1ccc(C(=O)NC(CC(=O)O)c2ccccc2)s1.O=C(O)C(F)(F)F (centres unmarked) [Compound VII, 3-{[5-(3-Amino-propylcarbamoyl)-thiophene-2-carbonyl]-amino}-3-phenyl-propionic acid trifluoroacetic acid salt], the “% of inhibition at 33 μg/mesh in the presence of VEGF” value [1] was 34%, the “Incidence of lung metastasis” value [2, 3] was 1/10 and the “Incidence of lymph node metastasis” value [2, 3] was 2/10. For the same compound, the “Incidence of lymph node metastasis” value ([2]; Group D, 50 mg/kg SC 2 times/day) was 3/10 and the “Incidence of lung metastasis” value ([2]; Group D, 50 mg/kg SC 2 times/day, trifluoroacetic acid salt, 50 mg/kg) was “no lung metastasis and 0/10”.
